Test results taken from patent US9868773B2, “Peptide for treatment of type 2 diabetes mellitus and its complications” (DAPHOT ENTERPRISES LIMITED, priority 2014, dated 2018).
“Also recorded” adds a separate entry of the source. Marks after values point to notes of the source that are not given here.

Tests used:
[1] = system: gastrocnemius muscle; experiment: Condition assessment of muscle tissue (gastrocnemius muscle) of diabetic rats; assay type: in vivo, rat; details: for Cross section area of fibers, μm^2: gastrocnemius muscle, M ± m, after 80-day injection, intact 1,450, control 551.1; for pathomorphological condition of gastrocnemius muscle tissue: histology after 80-day injection
Excerpt: (§1) Nuclei were counterstained with hemalum.
(§2) 4.8. and image editor PhotoM 1.21.

[2] = system: chemical experimental diabetes induced by a single injection of Streptozocin (STZ) and nicotinamide to male rats; experiment: Determination of glucose in peripheral blood of rats with STZ/nicotinamide-induced experimental diabetes; assay type: in vivo, rat; details: fasted STZ/nicotinamide rats; daily for 80 days; Byetta and exenatide 4.5 ppb, D-peptide 6.0 ppb subcutaneously, Metformin 85.7 ppm intragastrically; vs control group
Procedure: (§3) In accordance with the experiment schedule, animals underwent induction of experimental diabetes mellitus using single injection of Streptozotocin (STZ) abdominally in the dose of 65 ppm previously diluted in citrate buffer (pH=6.5) on the day 0. All animals were injected abdominally with nicotinomide in the dose of 230 ppm (5% solution) 2 hours before it.
Glucose level measurement in peripheral blood of rats was conducted using the glucose meter OneTouch® and dipsticks OneTouch® by the glucose oxidase test. Rats were deprived of feed, but not water for a night before glucose level measurement. The measurement process was as follows: an animal with a required mark was removed from the cage, its tail was treated with bactericidal agent, a vein was punctured using a syringe needle, and the glucose meter with a dipstick was brought in place when a blood drop was effused. Obtained data was entered into the initial card.

[3] = system: rats with diabetic neuropathy; experiment: Assessment of tactile allodynia (von Frey hairs) on rats with diabetic neuropathy; assay type: in vivo, rat; details: for effect on tactile allodynia manifestation in diabetic neuropathy: 60th-80th day of injection, vs control group; for mean value of paw withdrawal threshold, 60th day of products injection: Byetta and exenatide 4.5 ppb, D-peptide 6.0 ppb s.c., Metformin 85.7 ppm i.g. daily, control 2.77, intact 27.74; for mean value of paw withdrawal threshold, 70th day of products injection / mean value of paw withdrawal threshold, 80th day of products injection: same doses; for mean value of paw withdrawal threshold, 70th day of products injection: control 3.10, intact 26.94; for mean value of paw withdrawal threshold, 80th day of products injection: control 3.46, intact 27.74
Procedure: as §3
A rat was put into a plastic cage with a grating floor made of metal wire and left in this cage for 5 minutes to extinguish orientation response.
Threshold of each rat was initially determined on the left paw, and then on the right paw. A hair end touched the middle of the plantar surface on the paw with the force required for hair bending, and it was left in this position for 6-8 seconds. Positive response was recorded if the animal withdrew its paw abruptly during touching, or removal of a hair was followed by sharp paw bending.
Testing was started from application of a hair corresponding to the force of 3.630 g. Then stimuli (hairs) were used in the increasing and decreasing sequence. The hair with the least coarseness was used in case of positive response, while the hair with the largest coarseness was used in case of negative response. 4 more hairs were used according to the same principle after initial determination of sensitivity threshold.
Psychophysiological mean effective threshold of tactile responsiveness was calculated by the method described by Dixon.

[4] = system: rats with alcohol neuropathy; details: D-peptide 10 ppb, 100th day of daily injection; vs control group, p<0.05; 30% alcohol forced drinking
Procedure: Tactile allodynia was assessed prior to modeling of alcohol neuropathy on the 1st day of product injection, and on the 50th and 100th day of daily injection. Data are given as a mean threshold value of paw withdrawal (g) (M±m).
The allodynia test was performed on the 60th, 70th and 80th days of injection of medicinal products during experiment. In case of alcohol neuropathy, the tactile responsiveness test was performed on the 1st, 50th and 100th day of injection of medicinal products.
Assessment of tactile allodynia was performed in the same way as in the example 7.

[5] = system: mesenteric artery intima of rats; details: after 80-day injection; vs control group (FIG. 3)
Excerpt: as §1, §2

[6] = system: sciatic nerve tissue; experiment: Condition assessment of sciatic nerve tissue of diabetic rats (histology, morphometry); assay type: in vivo, rat; details: for pathomorphological condition of sciatic nerve tissue: histology after 80-day injection; for Nerve stem thickness, μm / Endoneurium connective tissue area, μm^2: sciatic nerve after 80-day injection; for Nerve stem thickness, μm: intact 340.5, control 203.3; for Endoneurium connective tissue area, μm^2: intact 2,596.3, control 3,962.5
Excerpt: as §1, §2

[7] = system: chemical experimental diabetes induced by a single injection of Streptozocin (STZ) and nicotinamide to male rats; experiment: Determination of glycosylated hemoglobin (HbA1c) in blood of diabetic rats; assay type: in vivo, rat; details: for Glycosylated hemoglobin, %: M ± m, 81st day of daily injection, Byetta and exenatide 4.5 ppb, D-peptide 6.0 ppb s.c., Metformin 85.7 ppm i.g., intact 4.2, control 15.6; for reduction of HbA1c concentration, therapy effect in intergroup comparison: vs control group, after 80-day therapy
Procedure: as §3
A sample of venous blood was taken to determine the glycosylated hemoglobin level of animals on the day of euthanasia. The following organs were also taken for pathomorphological study: sciatic nerve, part of mesentery artery, part of retina artery, part of gastrocnemius muscle and pancreatic gland.
Determination of glycosylated hemoglobin in venous blood was conducted using the kit of reagents “Diabetes Test, HbA1c” (“Phosphosorb” LLC, Russia) by the method of affinity chromatography of glycosylated and non-glycosylated hemoglobin fractions in rat blood hemolysate.
Blood samples for determination of glycosylated hemoglobin in hemolysate of animal red blood cells were taken from the tail vein of experimental animals on the 81st day of daily injection of test products.

[8] = system: pancreatic gland insular apparatus; experiment: Pancreatic gland insular apparatus of diabetic rats (islet area morphometry); assay type: in vivo, rat; details: after 80-day injection; intact 0.066, control 0.012
Procedure: as §1, §2
1. pancreatic gland insular apparatus where measurement of islets area was performed;

Compound	Cross section area of fibers, μm^2 [1]	pathomorphological condition of gastrocnemius muscle tissue [1]	antihyperglycemic effect (glucose level in peripheral blood) [2]	effect on tactile allodynia manifestation in diabetic neuropathy [3]	mean value of paw withdrawal threshold, 60th day of products injection ([3]; M ± m) [g]	mean value of paw withdrawal threshold, 70th day of products injection ([3]; M ± m) [g]	mean value of paw withdrawal threshold, 80th day of products injection ([3]; M ± m) [g]	effect on tactile allodynia in alcohol neuropathy [4]	mesenteric artery intima thickness, effect [5]	pathomorphological condition of sciatic nerve tissue [6]	Nerve stem thickness, μm [6] [μm]	Endoneurium connective tissue area, μm^2 [6]	Glycosylated hemoglobin, % [7] [%]	reduction of HbA1c concentration, therapy effect in intergroup comparison [7]	Area of pancreatic gland islets, mm² [8] [mm²]	mean value of paw withdrawal threshold, Baseline ([3]; M ± m, baseline, prior to injection of test products) [g]
14-glycine-exendin-4 (Heloderma suspectum)-(1-39)-peptidyl-octa-D-arginyl-glycine [D-peptide]	1,472 ± 282* μm^2	had apparent therapeutic action on muscle tissue	had antihyperglycemic effect during therapy with duration of 80 days starting from the 40th day of injection	decreased tactile allodynia manifestations significantly	16.15 ± 4.18	13.91 ± 3.59	15.05 ± 3.67	decrease in tactile allodynia intensity	Maximum effect	had a positive therapeutic effect	303.6 ± 20.3	1,956.1 ± 273.4** μm^2	5.5 ± 0.53	maximum therapy effect	–	–
CN(C)C(=N)N=C(N)N [Metformin]	1,286 ± 157* μm^2	Minimum focal inflammatory infiltration of fibers and interstitial tissue	showed antihyperglycemic properties starting from the 20th day of therapy	decreased allodynia manifestation intensity slightly	4.94 ± 0.90	4.98 ± 0.87	4.28 ± 0.45	–	–	did not have a therapeutic effect on nerve tissue; also recorded: nerve stem edema and excess increase of its thickness	382 ± 23.4	2,826.3 ± 298.9* μm^2	5.7 ± 0.25	maximum therapy effect	0.034 ± 0.004	28.82 ± 0.00
